# From patent US6794383B2, “Heart muscular cell apoptosis inhibitors and remedies/preventives for heart diseases” (Takeda Chemical Industries, Ltd., priority 2000, dated 2004)
# Tested on: phosphorylated STAT3 (Tyr705) / gp130 signal
# Test: Enhancing action on gp130 signal: LIF-induced phosphorylation of STAT3 (Tyr705) by immunoblotting
# Type: cell-based, rat
# Details: 0.01-10 μM Compound 1 with 10 U/ml human LIF, 30 minutes, primary heart muscle cells from newborn rats, FIG. 1
# Text: STAT3 (signal transducers and activators of transcription-3) is a primary positive regulatory factor involved in transmission of gp130 signal. Phosphorylation of the tyrosine residue at the 705th position (Tyr705) is essential for activation of STAT3. Accordingly, this phosphorylation can be used as an indicator of activation of STAT3, that is, of an enhancing action on gp130 signal.
# Primary heart muscle cells derived from newborn rats were stimulated with a small amount of LIF (Leukemia inhibitory factor) to induce gp130 signal in the presence of a test compound (Compound 1 obtained in Reference Example 1). Phosphorylation of Tyr705 was examined by immunoblotting with an antibody specifically recognizing phosphorylated STAT3, to confirm the enhancing action of the test compound on gp130 signal.
# The primary heart muscle cells derived from newborn rats, obtained in the method of Experimental Example 1, were suspended at a density of 5×10^6 cells/ml in Medium 199 containing 10% fetal bovine serum, then put to a 12-well plate (ASAHI TECHNO GLASS CORPORATION) in a volume of 2.0 ml/well, and cultured for 1 day in a 5% CO2 incubator set at 37° C. […]
row,Compound,phosphorylation of STAT3 induced by LIF
1,"O=c1nc(-c2ccccn2)sc2ccccc12 [Compound 1, 2-(2-Pyridyl)-4H-1,3-benzothiazin-4-one]",can further promote phosphorylation of STAT3

# Tested on: primary heart muscle cells derived from newborn rats
# Test: Inhibitory activity on heart muscle cell apoptosis (serum-free culture, viable cell number by WST-8)
# Type: cell-based, rat
# Details: mean ± SD of three independent experiments; concentration required to increase the mean viable cell number by 30% vs absence of test compound; serum-free Medium 199, 4 days
# Text: Newborn rats (within 1 day after birth) were obtained from pregnant Wister rats purchased from Charles River, anesthetized under ether, and sterilized with 70% ethanol, and then their hearts were excised with tweezers. The excised hearts were washed with a phosphate-buffered physiological saline (T900; Takara) and cut into pieces with surgical scissors. These tissue pieces were washed 4 to 5 times with a phosphate-buffered physiological saline to remove a majority of blood-derived non-heart muscle cells. To the tissue pieces derived from 10 newborns, 5 ml of enzyme solution (1.25 mg trypsin (Difco) and 0.25 mg collagenase (Sigma) per ml of phosphate-buffered saline (PBS)) was added and the mixture was stirred with a stirrer at 37° C. for 15 mins. Another 2.5 ml enzyme solution was then added twice repeatedly at a 15-minutes interval. Then, Medium 199 (Gibco) containing 10% fetal calf serum (Biowiker) was added in a half volume of the enzyme solution to terminate the enzyme reaction. The cells were filtered through a Cell Strainer (Falcon) and then centrifuged at 400×g for 5 minutes, whereby the cells were collected.
# The cells thus collected from 10 newborns were suspended in 50 ml Medium 199 containing 10% fetal calf serum, plated onto 100 mm Petri dishes (Iwaki) in a volume of 10 ml/dish and cultured for 1 hour in a CO2 incubator set at 5% CO2 and 37° C. The cells were then recovered, filtered through a Cell Strainer and centrifuged at 400×g for 5 minutes to collect the primary heart muscle cells derived from newborn rats.
# Then, the heart muscle cells from 10 newborn rats were suspended in 2 ml low-isotonic solution (prepared by dissolving 8.29 g NH4Cl, 1.0 g KHCO3, 37 mg EDTA/2Na (ethylenediaminetetraacetic acid disodium)(Dojindo) in 1 L of water) and left for 3 minutes to disrupt erythrocytes. After 10 ml Medium 199 containing 10% fetal calf serum was added thereto, the primary heart muscle cells from newborn rats were collected by centrifugation at 400×g for 5 minutes. The cells were suspended in Medium 199 containing 10% fetal calf serum and then filtered through a cell strainer. After 0.3% trypan blue was added to, and mildly mixed with, an aliquot of the resulting cell suspension, the number of heart muscle cells was counted on an erythrocyte counting plate.
# The primary heart muscle cells from newborn rats were suspended at a density of 3×10^6 cells/ml in Medium 199 containing 10% fetal calf serum, put onto a 96-well plate in a volume of 0.1 ml/well, and then cultured in a CO2 incubator set at 5% CO2 and 37° C. After the plate was stirred with a micromixer (Taiyo Kagaku Kogyo), the medium was exchanged 3 times with serum-free Medium 199, and then test compounds (Compounds 1 to 5 obtained in Reference Examples) were added thereto. The cells were cultured for additional 4 days to induce apoptosis. Then, fetal calf serum was added thereto at a concentration of 10%, and the cells were further cultured for about 17 hours in a CO2 incubator set at 5% CO2 and 37° C. Finally, the number of viable cells was determined with Cell Counting Kit (Dojindo) using WST-8 (2-(2-methoxy-4-nitrophenyl)-3-(4-nitrophenyl)-5-(2,4-disulfophenyl)-2H-tetrazolium, monosodium salt) as the coloring substrate to determine the inhibition of the heart muscle cell apoptosis.
# The above-mentioned exeriment was tripicated in an independent manner. […]
row,Compound,Minimal Effective Concentration [µM]
1,"O=c1nc(-c2ccccn2)sc2ccccc12 [Compound 1, 2-(2-Pyridyl)-4H-1,3-benzothiazin-4-one]",0.015 ± 0.011
2,"O=c1nc(-c2cccnc2)sc2ccccc12 [Compound 2, 2-(3-pyridyl)-4H-1,3-benzothiazin-4-one]",0.041 ± 0.018
3,"O=c1nc(-c2ccncc2)sc2ccccc12 [Compound 3, 2-(4-pyridyl)-4H-1,3-benzothiazin-4-one]",0.014 ± 0.0099
4,"CCOC(=O)/C=C1\NC(=O)c2ccccc2S1 [Compound 4, Ethyl 2-(4-oxo-3,4-dihydro-2H-1,3-benzothiazin-2-ylidene)acetate]",0.019 ± 0.0078
5,"O=C1N/C(=C\C(=O)N2CCCCC2)Sc2ccccc21 [Compound 5, 2-[2-oxo-2-(1-piperidinyl)ethylidene]-2,3-dihydro-4H-1,3-benzothiazin-4-one]",0.06 ± 0.041
